Our source for the IC50 values is PubChem BioAssay AID623988 (Vanderbilt High Throughput Screening Facility, 2012).

In this test the target is Voltage-gated inwardly rectifying potassium channel KCNH2 (Homo sapiens) (UniProt Q12809). The experiment in a line: KCNH2 potassium channel blockade – cell-based, thallium flux, concentration-response, selectivity assay for GIRK activator project, dose response (AID 623988). Particulars: hERG-expressing HEK293 cells, thallium flux fluorescence.

SMILES strings stand for the structures. pIC50: −log10 of the molar value.

Voltage-gated inwardly rectifying potassium channel KCNH2 (Homo sapiens), sequence (Q12809 whole entry, looked up): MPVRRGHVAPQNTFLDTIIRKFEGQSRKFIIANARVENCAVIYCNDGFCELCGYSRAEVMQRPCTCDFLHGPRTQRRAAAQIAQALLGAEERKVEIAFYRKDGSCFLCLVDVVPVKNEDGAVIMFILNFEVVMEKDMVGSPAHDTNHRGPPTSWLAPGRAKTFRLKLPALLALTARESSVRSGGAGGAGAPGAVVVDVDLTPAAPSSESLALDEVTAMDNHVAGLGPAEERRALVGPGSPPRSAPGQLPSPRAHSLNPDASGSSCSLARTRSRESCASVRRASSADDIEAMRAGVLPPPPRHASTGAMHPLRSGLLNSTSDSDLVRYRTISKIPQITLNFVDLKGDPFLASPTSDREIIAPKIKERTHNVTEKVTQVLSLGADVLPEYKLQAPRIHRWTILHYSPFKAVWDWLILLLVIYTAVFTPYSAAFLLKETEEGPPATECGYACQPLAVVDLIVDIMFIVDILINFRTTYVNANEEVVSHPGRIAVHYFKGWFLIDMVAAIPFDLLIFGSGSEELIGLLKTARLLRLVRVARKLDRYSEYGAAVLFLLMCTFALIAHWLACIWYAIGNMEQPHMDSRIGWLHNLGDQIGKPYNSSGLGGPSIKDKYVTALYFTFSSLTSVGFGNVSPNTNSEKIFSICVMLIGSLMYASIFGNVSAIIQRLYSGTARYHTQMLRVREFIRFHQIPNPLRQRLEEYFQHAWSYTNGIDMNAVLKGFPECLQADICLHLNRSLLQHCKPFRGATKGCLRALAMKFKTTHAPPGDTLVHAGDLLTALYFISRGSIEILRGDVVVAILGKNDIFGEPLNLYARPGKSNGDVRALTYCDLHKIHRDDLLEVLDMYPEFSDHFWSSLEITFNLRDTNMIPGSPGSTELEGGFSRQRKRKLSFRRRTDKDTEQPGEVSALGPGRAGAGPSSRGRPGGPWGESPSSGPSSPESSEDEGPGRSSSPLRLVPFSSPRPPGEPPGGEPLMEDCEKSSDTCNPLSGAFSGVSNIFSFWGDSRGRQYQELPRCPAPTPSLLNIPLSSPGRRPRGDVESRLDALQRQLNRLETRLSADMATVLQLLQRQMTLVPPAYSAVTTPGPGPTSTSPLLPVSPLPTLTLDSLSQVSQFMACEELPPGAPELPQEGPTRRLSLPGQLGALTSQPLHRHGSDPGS

For the molecule `Cc1cc(NC(=O)Nc2ccc(F)c(F)c2)n(-c2ccccc2)n1`, the pIC50 (commonly the negative decadic logarithm of the IC50, by convention in mol/L) was 4.97.
